Test systems include Alternaria alternata; Botrytis cinerea; Cladosporium herbarum; Vibrio alginolyticus.
Holding throughout (assay): ≥ marks a high value that may be exact or a test limit, other limits are often not marked, values filed in µg/mL are converted to µM
The subject of test [1] is Escherichia coli ATCC 25922.
In test [2] the test system is Klebsiella pneumoniae ATCC 700603.
Test [3] deals with Pseudomonas aeruginosa ATCC 27853.
Test [4] has as its system Staphylococcus aureus ATCC 29213.
For test [5], the system named is Staphylococcus aureus ATCC 33591.
The test system of test [6] is Staphylococcus aureus ATCC 700699.
In test [7] the test system is Staphylococcus aureus BCRC 10780.
For test [8], the system named is Streptococcus pneumoniae BCRC 10794.
Test [9] has as its system Escherichia coli ATCC 11219.
For test [10], the system named is Klebsiella pneumoniae ATCC 10031.
The subject of test [11] is Pseudomonas aeruginosa ATCC 13388.
The test system of test [12] is Salmonella enterica subsp. enterica serovar Typhimurium ATCC 14028.
Test [13] deals with Staphylococcus aureus ATCC 6538.
Test [14] concerns Cronobacter sakazakii DPC 6440.
For test [15], the system named is Listeria monocytogenes LO28.
In test [16] the test system is Clavibacter michiganensis subsp. michiganensis DSM 46294.
The subject of test [17] is Pectobacterium carotovorum subsp. carotovorum DSM 30168.
The subject of test [18] is Pseudomonas corrugata DSM 7228.
Test [19] has as its system Pseudomonas syringae pv. syringae DSM 10604.
Test [20] concerns Pseudomonas syringae pv. tomato DC3000.
Test [21] relates to Staphylococcus aureus 90857.
The test system of test [22] is Xanthomonas vesicatoria DSM 50861.
The test system of test [23] is Bacillus anthracis Sterne 34F2.
Test [24] concerns Bacillus subtilis ATCC 9372.
Test [25] deals with Burkholderia thailandensis.
In test [26] the test system is Staphylococcus sp. BCRC 10451.
Test [27] deals with Vibrio harveyi BCRC 13812.

Values after ≈ are worked out from the molar mass of the structure shown.

What is called MIC is the least concentration at which growth counts as inhibited. Lower therefore signals inhibition by little substance. On to `CC[C@H](C)[C@H](NC(=O)[C@H](CC(=O)O)NC(=O)[C@H](CCCCN)NC(=O)[C@H](C)NC(=O)[C@H](C)NC(=O)CNC(=O)[C@H](CCCCN)NC(=O)[C@H](C)NC(=O)[C@@H](NC(=O)[C@H](CC(=O)O)NC(=O)[C@@H](NC(=O)[C@@H](NC(=O)CN)C(C)C)C(C)C)[C@@H](C)CC)C(=O)N[C@@H](C)C(=O)NCC(=O)N[C@@H](Cc1cnc[nH]1)C(=O)N[C@@H](CC(C)C)C(=O)N[C@@H](C)C(=O)N[C@@H](CO)C(=O)N[C@@H](CCCCN)C(=O)N[C@H](C(=O)N[C@@H](CCSC)C(=O)N[C@@H](CC(N)=O)C(=O)N[C@@H](CCCCN)C(=O)N[C@@H](CC(C)C)C(N)=O)C(C)C` [GVVDIAKGAAKDIAGHLASKVMNKL], for which the minimal inhibitory concentration (MIC) in test [1] is more than 100 µM; in test [2] it was more than 100 µM; in test [3], more than 100 µM; in [4] it was more than 100 µM; in test [5] it was not below 100 µM; in test [6], not below 100 µM.

Take `CC[C@H](C)[C@H](NC(=O)[C@H](Cc1ccccc1)NC(=O)CNC(C)=O)C(=O)N[C@@H](Cc1ccccc1)C(=O)N[C@@H](Cc1cnc[nH]1)C(N)=O` [GFIFH]: the minimal inhibitory concentration (MIC) in test [7] and in test [8] was not below 161 µM throughout.

As for `CC[C@H](C)[C@H](NC(=O)CN)C(=O)N[C@@H](Cc1cnc[nH]1)C(=O)N[C@@H](CC(=O)O)C(=O)N[C@H](C(=O)N[C@@H](CC(C)C)C(=O)N[C@@H](CCCCN)C(=O)N[C@@H](Cc1ccc(O)cc1)C(=O)N[C@@H](C)C(=O)N[C@@H](CCCCN)C(=O)N1CCC[C@H]1C(=O)N[C@@H](CO)C(N)=O)[C@@H](C)CC` [GIHDILKYAKPS], the MIC in [9] is 5 µM (≈ 6.7 µg/mL); in test [10] it was 10 µM (≈ 13.4 µg/mL); in test [11] it was 15 µM (≈ 20.1 µg/mL); in [12], 10 µM (≈ 13.4 µg/mL); in test [13], 10 µM (≈ 13.4 µg/mL).

In the case of `CC[C@H](C)[C@H](NC(=O)[C@@H](N)Cc1c[nH]c2ccccc12)C(=O)N[C@@H](CCC(N)=O)C(=O)N1CCC[C@H]1C(=O)N[C@@H](CCCCN)C(=O)N[C@H](C(=O)N[C@@H](CCCCN)C(=O)N[C@@H](C)C(=O)N[C@H](C(=O)N1CCC[C@H]1C(=O)N[C@@H](Cc1ccc(O)cc1)C(=O)N[C@H](C(=O)N[C@@H](CCCN=C(N)N)C(=O)N[C@@H](Cc1ccc(O)cc1)C(=O)N[C@@H](CC(C)C)C(=O)O)C(C)C)[C@@H](C)CC)[C@@H](C)O` [WIQPKTKAIPYVRYL], the figures for the minimum inhibitory concentration (MIC) in [14] and in [15] were not below 78.1 µM and 19.5 µM (≈ 36.6 µg/mL), respectively.

On to `CC(C)C[C@H](NC(=O)[C@H](C)NC(=O)[C@H](CCCCN)NC(=O)[C@H](CCCCN)NC(=O)[C@H](CC(C)C)NC(=O)[C@H](Cc1ccccc1)NC(=O)[C@H](CCCN=C(N)N)NC(=O)[C@@H](N)CC(C)C)C(=O)N[C@@H](CCCCN)C(=O)N[C@@H](CCCCN)C(=O)N[C@@H](CC(C)C)C(=O)N[C@@H](Cc1ccccc1)C(N)=O` [LRFLKKALKKLF], for which the MIC came out at 0.166 µM (≈ 0.25 µg/mL) in test [16]; 0.664 µM (≈ 0.999 µg/mL) in test [17]; 0.332 µM (≈ 0.5 µg/mL) in test [18]; 0.0664 µM (≈ 0.0999 µg/mL) in [19]; 0.332 µM (≈ 0.5 µg/mL) in test [20]; 0.625 µM (≈ 0.94 µg/mL) in [21]. Also, the MIC in [22] was 0.166 µM (≈ 0.25 µg/mL).

Take `CC[C@H](C)[C@H](NC(=O)[C@@H](N)Cc1c[nH]c2ccccc12)C(=O)N[C@@H](CCC(N)=O)C(=O)N1CCC[C@H]1C(=O)N[C@@H](CCCCN)C(=O)N[C@H](C(=O)N[C@@H](CCCCN)C(=O)N[C@H](C(=O)N[C@H](C(=O)N1CCC[C@H]1C(=O)N[C@@H](Cc1ccc(O)cc1)C(=O)N[C@H](C(=O)O)C(C)C)[C@@H](C)CC)C(C)C)[C@@H](C)O` [WIQPKTKVIPYV]: the minimum inhibitory concentration (MIC) in [14] was not below 625 µM; in test [15], not below 156 µM.

Turning to `CC(C)C[C@H](NC(=O)[C@H](C)NC(=O)[C@H](CCCN=C(N)N)NC(=O)[C@H](CCCCN)NC(=O)[C@H](CC(C)C)NC(=O)[C@H](C)NC(=O)[C@H](CCCN=C(N)N)NC(=O)[C@H](C)NC(=O)[C@H](C)NC(=O)[C@H](CCCCN)NC(=O)[C@H](CCCCN)NC(=O)[C@@H](N)CCCCN)C(N)=O` [KKKAARALKRAL], the minimal inhibitory concentration (MIC) is not below 73.9 µM in the test on Alternaria alternata; not below 73.9 µM in the test on Botrytis cinerea; 29.5 µM (≈ 40 µg/mL) against Cladosporium herbarum; 29.5 µM (≈ 40 µg/mL) in test [16]; 29.5 µM (≈ 40 µg/mL) in test [17]; 29.5 µM (≈ 40 µg/mL) in [18]. The MIC in test [19] was determined as 29.5 µM (≈ 40 µg/mL); in [20], 7.39 µM (≈ 9.99 µg/mL); in test [22] it was 29.5 µM (≈ 40 µg/mL).

Turning to `CC[C@H](C)[C@H](NC(=O)[C@H](CC(C)C)NC(=O)[C@@H](N)CC(C)C)C(=O)N[C@@H](CCCN=C(N)N)C(=O)N[C@@H](C)C(=O)N[C@@H](C)C(=O)N[C@@H](CCCCN)C(=O)N[C@@H](CCCCN)C(=O)N[C@@H](Cc1ccccc1)C(=O)N[C@H](C(=O)N[C@@H](CCCCN)C(=O)N[C@@H](CCCCN)C(N)=O)[C@@H](C)CC` [LLIRAAKKFIKK], the MIC is not below 70 µM in the test on Alternaria alternata; not below 70 µM in the test with Botrytis cinerea; 28 µM (≈ 40 µg/mL) in the test with Cladosporium herbarum; 28 µM (≈ 40 µg/mL) in [16]; 28 µM (≈ 40 µg/mL) in [17]; 28 µM (≈ 40 µg/mL) in [18]. Also, the MIC in [19] was 28 µM (≈ 40 µg/mL); in [20], 28 µM (≈ 40 µg/mL); in test [21] it was not below 62.5 µM; in test [22], 28 µM (≈ 40 µg/mL).

In the case of `CC[C@H](C)[C@H](NC(=O)[C@H](CCCN=C(N)N)NC(=O)[C@H](CC(C)C)NC(=O)[C@H](CCC(N)=O)NC(=O)[C@H](CCCCN)NC(=O)[C@H](CC(C)C)NC(=O)[C@H](CC(C)C)NC(=O)[C@H](CC(C)C)NC(=O)[C@@H](NC(=O)[C@H](CCCCN)NC(=O)[C@H](CC(=O)O)NC(=O)[C@H](C)NC(=O)[C@@H](NC(=O)[C@H](CCCCN)NC(=O)[C@H](CCCCN)NC(=O)[C@H](CC(=O)O)NC(=O)[C@@H](NC(=O)[C@H](Cc1cnc[nH]1)NC(C)=O)C(C)C)C(C)C)C(C)C)C(=O)N[C@@H](CCSC)C(=O)N[C@@H](CCCN=C(N)N)C(=O)N[C@@H](CC(C)C)C(=O)N[C@@H](CC(C)C)C(=O)N[C@H](C(=O)N[C@@H](CCCN=C(N)N)C(=O)N[C@@H](CC(C)C)C(N)=O)[C@@H](C)O` [HVDKKVADKVLLLKQLRIMRLLTRL], the values for the MIC in test [23], in test [24] and in test [25] were not below 35 µM, 16 µM (≈ 48.7 µg/mL) and not below 50 µM, respectively.

Turning to `CC[C@H](C)[C@H](NC(=O)CN)C(=O)N[C@@H](CCCN=C(N)N)C(=O)N[C@@H](CC(=O)O)C(=O)N[C@H](C(=O)N[C@@H](CC(C)C)C(=O)N[C@@H](CCCCN)C(=O)N[C@@H](Cc1ccc(O)cc1)C(=O)NCC(=O)N[C@@H](CCCCN)C(=O)N1CCC[C@H]1C(=O)N[C@@H](CO)C(N)=O)[C@@H](C)CC` [GIRDILKYGKPS], the minimum inhibitory concentration (MIC) was found to be 5 µM (≈ 6.73 µg/mL) in test [9]; 5 µM (≈ 6.73 µg/mL) in test [10]; 20 µM (≈ 26.9 µg/mL) in test [11]; 5 µM (≈ 6.73 µg/mL) in test [12]; 10 µM (≈ 13.5 µg/mL) in [13].

`CC[C@H](C)[C@H](NC(=O)[C@H](Cc1ccccc1)NC(C)=O)C(=O)N[C@@H](Cc1ccccc1)C(=O)N[C@@H](Cc1cnc[nH]1)C(=O)N[C@H](C(=O)N[C@H](C(=O)N[C@@H](CCCCN)C(=O)NCC(=O)N[C@@H](CC(C)C)C(=O)N[C@@H](Cc1ccccc1)C(N)=O)[C@@H](C)CC)[C@@H](C)CC` [FIFHIIKGLF]: the MIC (in [7]; in test [26]; against Vibrio alginolyticus; in [27]) was 5.06 µM (≈ 6.46 µg/mL) in each case.

These data come from DBAASP.
